According to PubChem BioAssay (NCI):
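Where inhibition never reached the appropriate level, the endpoint shown equals the highest concentration tested. Otherwise, values were interpolated linearly from a five-concentration, 48-hour dose response in 96-well plates. TGI: concentration producing complete growth inhibition.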

Legend:
Test in all cases: NCI tumour cell line growth inhibition, 48 h
[1] = system: LXFL 529 NSCLC
[2] = system: DMS 273 small cell lung
[3] = system: KM20L2 colon
[4] = system: M19-MEL melanoma
[5] = system: DLD-1 colon
[6] = system: XF 498 CNS
[7] = system: HOP-18 NSCLC
[8] = system: SNB-78 CNS
[9] = system: DMS 114 small cell lung
[10] = system: RXF-631 renal

Compound	TGI [1]	TGI [2]	TGI [3]	TGI [4]	TGI [5]	TGI [6]	TGI [7]	TGI [8]	TGI [9]	TGI [10]
COC(=O)N/N=C(/CCN1CCCC1)CC(c1ccccc1)c1c(O)c2ccccc2oc1=O (configuration not stated)	> 100 µM	> 100 µM	> 100 µM	> 100 µM	> 100 µM	> 100 µM	> 100 µM	> 100 µM	–	–
O=C(O)C(Cc1c[nH]c2ccccc12)N=Cc1nc(-c2ccccc2)oc1O (configuration not stated)	> 100 µM	> 100 µM	> 100 µM	> 100 µM	> 100 µM	> 100 µM	–	> 100 µM	> 100 µM	–
COc1ccc(CNC2=C(NC(C)=O)C(=O)c3ccccc3C2=O)cc1	14.9 µM	> 50 µM	> 50 µM	17.4 µM	22.8 µM	–	–	40.6 µM	–	–
CC(=O)Nc1ccc(C(=O)NN2C(=O)C(Cl)C2c2cc(Br)ccc2O)cc1 (configuration not stated)	> 100 µM	–	–	33.7 µM	> 100 µM	–	62 µM	–	–	–
CCOC(=O)C(Cc1ccccc1)NC(=O)c1ccc(N=NN(C)C)cc1 (configuration not stated)	> 100 µM	> 100 µM	–	> 100 µM	> 100 µM	–	–	–	> 100 µM	–
C=CCNC(=S)N1c2ccccc2NC(=O)CC1C (configuration not stated)	> 100 µM	> 100 µM	> 100 µM	> 100 µM	–	> 100 µM	–	> 100 µM	> 100 µM	–
O=C1CCCC2=C(N1)C(=O)C=CC2=O	> 100 µM	> 100 µM	> 100 µM	> 100 µM	> 100 µM	> 100 µM	> 100 µM	> 100 µM	> 56.5 µM	> 100 µM
COC1C=CC(C(=O)[N+]2=Cc3[nH]c4ccccc4c3CC2)O1 (configuration not stated)	> 100 µM	> 100 µM	> 100 µM	> 100 µM	> 100 µM	–	> 100 µM	> 100 µM	> 100 µM	> 100 µM
